Results on four compounds are retold here after PMC3792958, “Olomoucine II, but Not Purvalanol A, Is Transported by Breast Cancer Resistance Protein (ABCG2) and P-Glycoprotein (ABCB1)” (PLoS ONE, 2013).

The subject of data set [1] is ABCG2. More on the design: method as in PMID 18841444. The settings on record: in vitro hematoporphyrin transport, Sf9 membrane vesicles; cited from earlier work.
The target in data set [2] is T1, ABCG2 (Homo sapiens, UniProt Q9UNQ0).
T1 sequence (Q9UNQ0 1-655): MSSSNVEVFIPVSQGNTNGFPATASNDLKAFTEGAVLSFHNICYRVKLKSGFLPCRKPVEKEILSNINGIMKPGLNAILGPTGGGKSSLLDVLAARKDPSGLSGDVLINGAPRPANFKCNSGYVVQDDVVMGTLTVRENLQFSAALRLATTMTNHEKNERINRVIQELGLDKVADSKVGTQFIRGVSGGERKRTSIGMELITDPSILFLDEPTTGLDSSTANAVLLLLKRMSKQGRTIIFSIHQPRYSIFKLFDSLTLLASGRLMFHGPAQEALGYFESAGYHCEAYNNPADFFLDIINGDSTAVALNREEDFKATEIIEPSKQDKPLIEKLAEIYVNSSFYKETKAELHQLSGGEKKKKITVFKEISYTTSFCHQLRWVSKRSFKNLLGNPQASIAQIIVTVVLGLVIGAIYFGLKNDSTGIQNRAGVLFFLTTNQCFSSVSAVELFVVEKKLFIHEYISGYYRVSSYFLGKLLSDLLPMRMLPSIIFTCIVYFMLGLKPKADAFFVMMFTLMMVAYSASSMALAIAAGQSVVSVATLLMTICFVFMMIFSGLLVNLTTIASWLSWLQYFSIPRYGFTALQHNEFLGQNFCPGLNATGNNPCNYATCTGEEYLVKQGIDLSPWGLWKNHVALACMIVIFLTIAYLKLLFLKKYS
The data set is described as follows: Cellular monolayer transport assay, MDCKII-ABCG2 cells. As for the experimental part:
(§1) ABCG2- and ABCB1-transduced MDCKII sublines (MDCKII-ABCG2 and MDCKII-ABCB1), which stably express ABCG2 and ABCB1 protein, respectively, were purchased from dr. Alfred Schinkeĺs lab (The Netherlands Cancer Institute, Amsterdam, The Netherlands). These transduced sublines as well as the parental MDCKII cell line (MDCKII-par) were routinely cultured in complete Dulbecco’s modified Eagle’s medium with 10% fetal bovine serum. 100 U/ml penicillin and 100 µg/ml streptomycin were used while growing the cells on the membrane inserts. All cells were routinely cultivated in antibiotic-free medium and periodically tested for mycoplasma contamination. […] Cells from passages 15 to 25 were used in all in vitro studies. Dimethyl sulfoxide was applied as a CDKi solvent in concentrations not exceeding 0.1%.
(§2) MDCKII-ABCG2, MDCKII-ABCB1 or MDCKII-par cells were seeded at a density of 1×10^6 per insert 72 h before experiment. The medium was replaced after 24 and 48 h of cultivation. One hour before the start of the experiment, the cells were washed with prewarmed 1×phospate buffered saline on both the apical and basal sides and Opti-MEM with or without fumitremorgin C or LY335979 was added into both compartments. At time 0, the experiment was started by replacing the medium with fresh Opti-MEM with or without CDKi and fumitremorgin C or LY335979 in the appropriate chamber. Samples were taken every 2 h from the opposite chambers for the duration of the experiment (6 h). Concentration of CDKi was determined via HPLC/MS analysis. Immediately after the experiment, cellular monolayer integrity was examined using fluorescein isothiocyanate labeled dextran (MW = 40 kDa). Dextran leakage was accepted up to 1% per hour.
(§3) HPLC/MS analysis using LC 20A Prominence chromatographic system (Shimadzu, Kyoto, Japan) coupled with LCQ Max advantage mass spectrometer (Thermo Finnigan, San Jose, CA, USA) was used for the quantification of olomoucine II and purvalanol A. The separation was performed on a Hypersil GOLD C18 column (100 × 4.6 mm, particle size 3 µm) protected with an OPTI-GUARD 1 mm guard column C18. The mobile phase flow rate was 0.35 ml/min and the column temperature was maintained at 40°C. The data were processed using Xcalibur 2.0 software (Thermo Finnigan, San Jose, CA, USA).
(§4) The detector was set as follows: spray voltage of 4.5 kV, capillary temperature of 320°C, sheet and auxiliary gas flows of 30 and 12 arbitrary units, respectively. […] The collision energies were 38% and 40% for olomoucine II and IS, respectively. […] The sample stability was evaluated within 94 h.
(§5) The detector was set as follows: spray voltage of 5.5 kV, capillary temperature of 340°C, sheet and auxiliary gas flows of 28 and 13 arbitrary units, respectively. […] The collision energies were 38% and 40% for purvalanol A and IS, respectively. […] The sample stability was evaluated within 94 hours.
(§6) Transport of olomoucine II by ABCG2 and ABCB1 was tested in vitro using transport assays across the polarized monolayers of MDCKII-ABCG2 and MDCKII-ABCB1 cells, respectively. In this method, the transport across the monolayer is greatly accelerated in the basolateral to apical direction, when the compound is a substrate of examined transporter. Based on our previous studies, three olomoucine II concentrations (100 nM, 1 µM and 10 µM) were tested and transport ratios (r; olomoucine II transport in basolateral to apical direction divided by transport in apical to basolateral direction) 2 h after olomoucine II addition were calculated.

Data set [3] has as its system ABCG2. The description is as above. The following applies: human. As to the method: as §1, §2, §3, §4, §5, §6
Data set [4] concerns ABCG2-expressing cell lines. The settings on record: combination method of Chou-Talalay; cited from earlier work.
The test system of the next data set is MDCKII-par cells. The data set is described as follows: Cellular monolayer transport assay, parental MDCKII-par cells. The settings on record: olomoucine II 100 nM and 1 µM, 2 h, 1 µM LY335979 (endogenous canine Abcb1 inhibitor). As to the method: as §1, §2, §3, §4, §5, §6
Test in data set [5]: as above
The following applies: dog, MDCK. As for the experimental part:
as §1, §2, §3, §4, §5, §6

Another data set deals with MDCKII cells. The data set is described as follows: Generation of sulfated conjugate in MDCKII cells (HPLC/MS). Format: in vitro ADME, canine. The following applies: MDCKII-ABCG2, MDCKII-ABCB1 and MDCKII-par; MS analysis. As to the method:
Concentration of CDKi was determined via HPLC/MS analysis. […] Dextran leakage was accepted up to 1% per hour.
In olomoucine II transport experiments, we recorded time-dependent generation of an unknown peak in the fifth minute of HPLC analysis in all three cell lines tested (MDCKII-ABCG2, MDCKII-ABCB1 and MDCKII-par). Based on the MS analysis, the compound was identified as a sulfated conjugate of olomoucine II (Fig. 2). […] On the other hand, the amount of sulfated metabolite increased with time and caused remarkable distortion of the results of parent compound. Therefore, when analyzing the data of unconjugated olomoucine II, the time interval was shortened to 2 hours in order to reduce the misrepresenting effect of sulfated olomoucine II. Considering ionic nature of sulfated olomoucine II, it is obvious that this compound cannot escape from the cells via passive diffusion but must utilize special transport system(s). Relative quantification of olomoucine II sulfate allowed us to describe its pharmacokinetic behavior in all MDCKII cell sublines.
Figure 2 Mass spectra of an unknown peak eluted in the fifth minute of HPLC analysis of olomoucine II transport. (A) spectrum in positive mode, (B) MS^2 in positive mode, (C) negative mode, (D) MS^2 in negative mode. […]

Data set [6] concerns ABCG2. The settings on record: cited from earlier work; for inhibition of ABCG2: in vitro and in situ levels.
For data set [7], the system named is ABCB1. The data set is described as follows: Cellular monolayer transport assay, MDCKII-ABCB1 cells. The following applies: human. As to the method: as §1, §2, §3, §4, §5, §6
The target of data set [8] is ABCB1 (Homo sapiens, UniProt P08183). The description is as above. As for the experimental part: as §1, §2, §3, §4, §5, §6
In data set [9] the test system is ABCB1. The following applies: bovine brain microvessel endothelial cell monolayers; cited from earlier work.
The subject of data set [10] is ABCG2. The settings on record: cited from earlier work.
Data set [11] relates to multidrug resistance associated protein 1 (ABCC1). Set-up: method as in PMID 20699410. The settings on record: cited from earlier work.
The subject of data set [12] is multidrug resistance associated protein 2 (ABCC2). Set-up: method as in PMID 20699410. The settings on record: cited from earlier work.

SMILES strings stand for the structures.

Sequence of ABCB1 (Homo sapiens, UniProt P08183) (P08183 whole entry): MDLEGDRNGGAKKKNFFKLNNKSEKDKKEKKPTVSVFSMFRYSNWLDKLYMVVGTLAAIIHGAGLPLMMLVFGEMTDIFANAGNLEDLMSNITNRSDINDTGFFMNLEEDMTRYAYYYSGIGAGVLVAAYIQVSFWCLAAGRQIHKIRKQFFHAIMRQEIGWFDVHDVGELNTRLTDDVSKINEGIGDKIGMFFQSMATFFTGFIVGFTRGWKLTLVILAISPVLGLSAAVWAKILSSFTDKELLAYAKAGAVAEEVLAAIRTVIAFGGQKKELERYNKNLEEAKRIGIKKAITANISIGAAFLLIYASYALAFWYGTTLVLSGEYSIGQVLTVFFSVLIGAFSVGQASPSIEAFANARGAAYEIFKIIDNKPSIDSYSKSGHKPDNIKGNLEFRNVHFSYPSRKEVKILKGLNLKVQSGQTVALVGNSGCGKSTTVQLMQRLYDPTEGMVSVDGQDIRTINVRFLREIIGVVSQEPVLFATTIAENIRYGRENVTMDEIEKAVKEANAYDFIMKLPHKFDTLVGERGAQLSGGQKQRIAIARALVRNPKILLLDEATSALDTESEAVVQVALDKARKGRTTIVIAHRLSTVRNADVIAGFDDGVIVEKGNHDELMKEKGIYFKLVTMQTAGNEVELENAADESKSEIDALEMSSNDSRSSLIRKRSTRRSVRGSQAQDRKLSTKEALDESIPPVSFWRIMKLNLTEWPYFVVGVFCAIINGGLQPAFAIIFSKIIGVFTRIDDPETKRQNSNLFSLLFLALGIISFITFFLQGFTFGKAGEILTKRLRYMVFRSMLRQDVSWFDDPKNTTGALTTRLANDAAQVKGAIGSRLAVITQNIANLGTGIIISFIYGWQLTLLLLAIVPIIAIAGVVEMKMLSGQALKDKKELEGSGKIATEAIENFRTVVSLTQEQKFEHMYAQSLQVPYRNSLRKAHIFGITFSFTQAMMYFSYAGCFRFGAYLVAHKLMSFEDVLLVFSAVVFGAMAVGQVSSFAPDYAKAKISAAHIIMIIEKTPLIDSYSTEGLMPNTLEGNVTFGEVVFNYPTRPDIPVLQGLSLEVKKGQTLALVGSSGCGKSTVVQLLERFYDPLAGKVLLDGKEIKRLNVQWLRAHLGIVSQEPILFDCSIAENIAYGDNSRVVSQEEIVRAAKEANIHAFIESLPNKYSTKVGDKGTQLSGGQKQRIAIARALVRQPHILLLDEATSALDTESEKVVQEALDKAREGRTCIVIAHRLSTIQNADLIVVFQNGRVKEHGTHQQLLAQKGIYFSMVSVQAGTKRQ

As for `COc1cc2ncnc(Nc3cccc(O)c3)c2cc1OC` [WHI-P180], the ABCG2 inhibition result with ABCG2 [1] is on record as “ABCG2 inhibition”.

`CC[C@H](CO)Nc1nc(NCc2ccccc2O)c2ncn(C(C)C)c2n1` [olomoucine II]: in the data set on placental ABCB1/ABCG2, the “transport by placental ABCB1/ABCG2 in perfused rat placenta” value is recorded as “actively pumped from fetus to mother”. The efflux ratio at 2 h, 100 nM at ABCG2 [2] (human) worked out at 2.27; in the data set on ABCG2 [3] (with fumitremorgin C 5 µM), 1.32; in data set [5], 1.45; with ABCB1 [7] (MDCK-MDR1, with LY335979 1 µM) it was 1.48; at ABCB1 [8] (human, MDCK-MDR1) it was 6.45. For the same compound, the efflux ratio at 2 h, 10 µM at ABCG2 [2] (human) amounted to 1.29; in [5], 1.64; at ABCB1 [8] (human, MDCK-MDR1), 2.51. For the same compound, the ABCG2 substrate status entry on ABCG2 [2] (in vitro, MDCKII-ABCG2 monolayers) is “dual substrate of ABCG2 and ABCB1”. Also, at ABCG2 [2] (olomoucine II 1 µM, 2 h, without inhibitor), the “transport ratio r (basolateral to apical divided by apical to basolateral)” value was found to be 2.31. Besides, the efflux ratio at 2 h, 1 µM is 1.21 in the data set with ABCG2 [3] (with fumitremorgin C 5 µM); 1.39 in data set [5]; 1.83 in the data set with ABCB1 [7] (MDCK-MDR1, with LY335979 1 µM); 6.83 at ABCB1 [8] (human, MDCK-MDR1). The “potentiation of the antiproliferative effect of mitoxantrone” value in [4] was “synergistically potentiate”. Further, in the data set with MDCKII-par cells, the “change in r values after adding LY335979” value is given as “did not observe statistically significant changes”. The “sulfatation in MDCKII cells” value with MDCKII cells was “time-dependent generation of a metabolite”. In addition, the “ABCG2 inhibitory potency compared with fumitremorgin C” value with ABCG2 [6] is “comparable or even higher potency than fumitremorgin C”. For the same compound, in the data set with ABCG2 [6], the “inhibition of ABCG2” value is on record as “inhibition of ABCG2”. For the same compound, the “asymmetry in transport in MDCKII-ABCB1 cells in comparison with ABCG2 transduced cells” value at ABCB1 [8] (100 nM and 1 µM, 2 h) is recorded as “approximately 3 fold”. The ABCB1 substrate status result at ABCB1 [8] (in vitro, MDCKII-ABCB1 monolayers) was “substrate of ABCB1”.

Take `CC(C)[C@H](CO)Nc1nc(Nc2cccc(Cl)c2)c2ncn(C(C)C)c2n1` [purvalanol A]: the “transport by placental ABCB1/ABCG2 in perfused rat placenta” value with placental ABCB1/ABCG2 is listed as “showed no interactions with these transporters”. Also, on ABCG2 [2] (human), the ABCG2 substrate status entry is listed as “not an ABCG2 substrate”; the efflux ratio at 6 h, 1 µM was 1.28; the efflux ratio at 6 h, 10 µM was found to be 1.23. For the same compound, in the data set on ABCG2 [3], the efflux ratio at 6 h, 1 µM was 1.33 and the efflux ratio at 6 h, 10 µM is 1.26. Also, the “potentiation of the antiproliferative effect of mitoxantrone” value in data set [4] is “synergistically potentiate”. Further, in data set [5], the efflux ratio at 6 h, 1 µM was determined as 1.14 and the efflux ratio at 6 h, 10 µM worked out at 1.05. The “sulfatation in MDCKII cells” value with MDCKII cells is reported as “not subjected to sulfatation”. For the same compound, in the data set with ABCG2 [6], the “ABCG2 inhibitory potency compared with fumitremorgin C” value is “comparable or even higher potency than fumitremorgin C” and the “inhibition of ABCG2” value is listed as “inhibition of ABCG2”. In addition, in the data set with ABCB1 [7] (MDCK-MDR1), the efflux ratio at 6 h, 1 µM was found to be 1.2 and the efflux ratio at 6 h, 10 µM was 1.18. In addition, on ABCB1 [8] (human, MDCK-MDR1), the ABCB1 substrate status entry was “not an ABCB1 substrate”; the efflux ratio at 6 h, 1 µM was 1.36; the efflux ratio at 6 h, 10 µM was 1.26. In the data set on ABCG2 [1], the ABCG2 inhibition entry is reported as “ABCG2 inhibition”.

Regarding `CC[C@H](CO)Nc1nc(NCc2ccccc2)c2ncn(C(C)C)c2n1` [roscovitine], the “inhibition of ABCB1” value in the data set on ABCB1 [9] was “significant inhibition of ABCB1”. In the data set with ABCG2 [10], the “transport by ABCG2” value was “not transported”. Further, the “transport by ABCC1” value in [11] is on record as “not transported”. Besides, the “transport by ABCC2” value in [12] is on record as “not transported”.

Broadly, the efflux ratio is a quotient of directional permeabilities that is used to spot active efflux.
